Patent publication US20080096929A1, “Novel Use” (ASTRAZENECA AB, priority 2004, published 2008)
pIC50: −log10 of the molar value.

molecular target: T1, human MPO (Homo sapiens, UniProt P05164); test: MPO inhibition screen (TMB oxidation, absorbance); assay type: biochemical; details: in the presence of tyrosine (final 8 μM); human MPO 2.5 nM; H2O2 100 μM
T1 sequence (P05164 49-745): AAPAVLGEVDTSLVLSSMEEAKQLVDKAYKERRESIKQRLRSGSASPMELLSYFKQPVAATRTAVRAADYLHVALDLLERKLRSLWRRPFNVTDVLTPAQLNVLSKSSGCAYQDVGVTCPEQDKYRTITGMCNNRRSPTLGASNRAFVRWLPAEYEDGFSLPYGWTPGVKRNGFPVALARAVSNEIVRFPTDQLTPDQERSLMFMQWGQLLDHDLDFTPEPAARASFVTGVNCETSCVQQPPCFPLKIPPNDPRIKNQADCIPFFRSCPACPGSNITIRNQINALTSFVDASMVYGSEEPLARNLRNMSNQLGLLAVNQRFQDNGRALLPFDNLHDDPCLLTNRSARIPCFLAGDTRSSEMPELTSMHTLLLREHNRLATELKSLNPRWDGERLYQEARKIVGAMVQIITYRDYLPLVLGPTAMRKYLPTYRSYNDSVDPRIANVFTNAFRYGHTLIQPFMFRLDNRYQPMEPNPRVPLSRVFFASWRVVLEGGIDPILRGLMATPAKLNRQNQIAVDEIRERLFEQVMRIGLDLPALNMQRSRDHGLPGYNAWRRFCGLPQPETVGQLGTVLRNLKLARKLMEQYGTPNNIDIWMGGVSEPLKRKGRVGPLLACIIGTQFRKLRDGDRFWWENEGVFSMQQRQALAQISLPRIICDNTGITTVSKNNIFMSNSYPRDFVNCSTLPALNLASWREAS
Experimental: Methods for the determination of MPO inhibitory activity are disclosed in patent application WO 02/090575. The pharmacological activity of compounds according to the invention was tested in the following screen in which the compounds were either tested alone or in the presence of added tyrosine:
Assay buffer: 20 mM sodium/potassium phosphate buffer pH 6.5 containing 10 mM taurine and 100 mM NaCl.
Developing reagent: 2 mM 3,3′,5,5′-tetramethylbenzidine (TMB), 200 μM KI, 200 mM acetate buffer pH 5.4 with 20% DMF.
To 10 μl of diluted compounds in assay buffer, 40 μl of human MPO (final concentration 2.5 nM), with or without 20 μM tyrosine (final concentration, if present, 8 μM), was added and the mixture was incubated for 10 minutes at ambient temperature. Then 50 μl of H2O2 (final concentration 100 μM), or assay buffer alone as a control, were added. After incubation for 10 minutes at ambient temperature, the reaction was stopped by adding 10 μl 0.2 mg/ml of catalase (final concentration 18 μg/ml). The reaction mixture was left for an additional 5 minutes before 100 μl of TMB developing reagent was added. The amount of oxidised 3,3′,5,5′-tetramethylbenzidine formed was then measured after about 5 minutes using absorbance spectroscopy at about […]. IC50 values were then determined using standard procedures.

Row | pIC50 | Compound
1 | 5.14 | S=c1[nH]nc(Cc2ccccn2)n1C1CCN(Cc2ccccc2)C1 (stereo not drawn) [Example 5, 4-(1-Benzyl-pyrrolidin-3-yl)-5-pyridin-2-ylmethyl-2,4-dihydro-[1,2,4]triazole-3-thione]
2 | 5.44 | O[C@@H]1CCCC[C@H]1n1c(COc2ccccc2Cl)n[nH]c1=S (relative stereo) [Example 2, 5-(2-Chloro-phenoxymethyl)-4-(trans-2-hydroxycyclohexyl)-2,4-dihydro-[1,2,4]triazole-3-thione]
3 | 5.17 | S=c1[nH]nc(Cc2ccccn2)n1C1CC2C=CC1C2 (stereo not drawn) [Example 4, 4-(Bicyclo[2.2.1]hept-5-en-2-yl)-5-pyridin-2-ylmethyl-2,4-dihydro-[1,2,4]triazole-3-thione]
